What was measured:
duck salad = assay: Test B flood test duck salad; format: in vivo, Heteranthera limosa
Summary of the method: (§1)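 Flood test on plants grown to the 2-leaf stage; treated plants kept in greenhouse twelve to sixteen days, then visually rated against controls on a 0 (no effect) to 10 (complete control) scale.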

giant foxtail = assay: Test B pre/postemergence giant foxtail; format: in vivo, Setaria faberii
Summary of the method: (§2)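 Response is a visual 0-to-10 score relative to untreated plants, where 0 means no effect and 10 means complete control, taken twelve to sixteen days after application. Treatments went onto soil at planting and onto foliage of 1- to 4-leaf plants, using a surfactant-containing non-phytotoxic solvent.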

purple nutsedge = assay: Test B pre/postemergence purple nutsedge; format: in vivo, Cyperus rotundus
Summary of the method: as §2

corn = assay: Test B pre/postemergence corn; format: in vivo, Zea mays
Summary of the method: as §2

rice = assay: Test B flood test rice; format: in vivo, Oryza sativa
Summary of the method: as §1

wild oat = assay: Test B pre/postemergence wild oat; format: in vivo, Avena fatua
Summary of the method: as §2

pigweed = assay: Test B pre/postemergence pigweed; format: in vivo, Amaranthus retroflexus
Summary of the method: as §2

morningglory = assay: Test B pre/postemergence morningglory; format: in vivo, Ipomoea hederacea
Summary of the method: as §2

crabgrass = assay: Test B pre/postemergence crabgrass; format: in vivo, Digitaria sanguinalis
Summary of the method: as §2

bedstraw = assay: Test B pre/postemergence bedstraw; format: in vivo, Galium aparine; conditions: Postemergence
Summary of the method: as §2

smallflower flatsedge = assay: Test B flood test smallflower flatsedge; format: in vivo, Cyperus difformis
Summary of the method: as §1

velvetleaf = assay: Test B pre/postemergence velvetleaf; format: in vivo, Abutilon theophrasti
Summary of the method: as §2

wheat = assay: Test B pre/postemergence wheat; format: in vivo, Triticum aestivum
Summary of the method: as §2

surinam grass = assay: Test B pre/postemergence surinam grass; format: in vivo, Brachiaria decumbens
Summary of the method: as §2

soybean = assay: Test B pre/postemergence soybean; format: in vivo, Glycine max
Summary of the method: as §2

cocklebur = assay: Test B pre/postemergence cocklebur; format: in vivo, Xanthium strumarium
Summary of the method: as §2

blackgrass = assay: Test B pre/postemergence blackgrass; format: in vivo, Alopecurus myosuroides
Summary of the method: as §2

sugar beet = assay: Test B pre/postemergence sugar beet; format: in vivo, Beta vulgaris
Summary of the method: as §2

bamyardgrass = assay: Test B flood test barnyardgrass; format: in vivo, Echinochloa crus-galli
Summary of the method: as §1

rape = assay: Test B pre/postemergence rape; format: in vivo, Brassica napus
Summary of the method: as §2

[1] = Rate 62 g/ha, flood test species, Pre-emergence, visual evaluation after twelve to sixteen days
[2] = Rate 125 g/ha, under heading Pre-emergence, flood test species, visual evaluation after twelve to sixteen days
[3] = Rate 250 g/ha, Pre-emergence (flood test species), scale 0 to 10, 0 is no effect, 10 is complete control
[4] = Rate 500 g/ha, Pre-emergence section of Table B, 0 to 10 scale (0 no effect, 10 complete control)
[5] = Postemergence, Rate 62 g/ha, scale 0 to 10, 0 is no effect, 10 is complete control
[6] = Postemergence, Rate 125 g/ha, scale of 0 to 10 where 0 is no effect and 10 is complete control
[7] = Postemergence, Rate 250 g/ha, scale of 0 to 10, 0 is no effect, 10 is complete control
[8] = Postemergence, Rate 500 g/ha, scale of 0 to 10 where 0 is no effect and 10 is complete control
[9] = Preemergence, Rate 62 g/ha, scale 0 to 10 (0 no effect, 10 complete control)
[10] = Preemergence, Rate 125 g/ha, scale of 0 to 10 where 0 is no effect and 10 is complete control
[11] = Preemergence, Rate 500 g/ha, scale of 0 to 10 where 0 is no effect and 10 is complete control

C=C(Cn1c(=O)on(C(=O)N(c2ccccc2)C(C)C)c1=O)c1ccc(F)cc1 [Compound 606]
Plant response rating, Ducksalad (0 to 10 scale, 0 is no effect, 10 is complete control) (duck salad; [1]): 0
Ducksalad plant response rating (0 to 10 scale, 0 is no effect, 10 is complete control) (duck salad; [2]): 0
Ducksalad plant response rating (duck salad; [3]): 0
Ducksalad plant response rating (duck salad; [4]): 0
Plant response rating, Giant foxtail (giant foxtail; [5]): 0
Plant response rating, Giant foxtail (giant foxtail; [6]): 0
Giant foxtail plant response rating (giant foxtail; [7]): 0
Plant response rating, Giant foxtail (giant foxtail; [8]): 3
Giant foxtail plant response rating (giant foxtail; [9]): 0
Giant foxtail plant response rating (giant foxtail; [10]): 6
Plant response rating, Giant foxtail (giant foxtail; [11]): 9
Plant response rating, Nutsedge (purple nutsedge; [5]): 0
Plant response rating, Nutsedge (purple nutsedge; [6]): 0
Plant response rating, Nutsedge (purple nutsedge; [8]): 0
Nutsedge plant response rating (purple nutsedge; [9]): 0
Nutsedge plant response rating (purple nutsedge; [10]): 0
Plant response rating, Nutsedge (purple nutsedge; [11]): 0
Plant response rating, Corn (corn; [5]): 0
Plant response rating, Corn (corn; [6]): 0
Corn plant response rating (corn; [7]): 0
Plant response rating, Corn (corn; [8]): 0
Corn plant response rating (corn; [9]): 0
Corn plant response rating (corn; [10]): 0
Corn plant response rating (0 to 10 scale) (corn; Preemergence, Rate 250 g/ha): 0
Plant response rating, Corn (corn; [11]): 0
Plant response rating, Rice (0 to 10 scale, 0 is no effect, 10 is complete control) (rice; [1]): 0
Rice plant response rating (0 to 10 scale, 0 is no effect, 10 is complete control) (rice; [2]): 0
Rice plant response rating (rice; [3]): 0
Rice plant response rating (rice; [4]): 0
Plant response rating, Wild oats (wild oat; [5]): 0
Plant response rating, Wild oats (wild oat; [6]): 0
Wild oats plant response rating (wild oat; [7]): 0
Plant response rating, Wild oats (wild oat; [8]): 0
Wild oats plant response rating (wild oat; [9]): 0
Wild oats plant response rating (wild oat; [10]): 0
Plant response rating, Wild oats (wild oat; [11]): 3
Plant response rating, Redroot pigweed (pigweed; [5]): 0
Plant response rating, Redroot pigweed (pigweed; [6]): 0
Redroot pigweed plant response rating (pigweed; [7]): 1
Plant response rating, Redroot pigweed (pigweed; [8]): 2
Redroot pigweed plant response rating (pigweed; [9]): 0
Redroot pigweed plant response rating (pigweed; [10]): 0
Plant response rating, Redroot pigweed (pigweed; [11]): 0
Plant response rating, Morningglory (morningglory; [5]): 6
Plant response rating, Morningglory (morningglory; [6]): 10
Morningglory plant response rating (morningglory; [7]): 10
Morningglory plant response rating (morningglory; [9]): 0
Morningglory plant response rating (morningglory; [10]): 0
Plant response rating, Morningglory (morningglory; [11]): 0
Plant response rating, Crabgrass (crabgrass; [5]): 0
Plant response rating, Crabgrass (crabgrass; [6]): 3
Crabgrass plant response rating (crabgrass; [7]): 3
Crabgrass plant response rating (crabgrass; [9]): 0
Plant response rating, Crabgrass (crabgrass; [11]): 8
Plant response rating, Bedstraw (bedstraw; Rate 62 g/ha, scale 0 to 10, 0 is no effect, 10 is complete control): 0
Bedstraw plant response rating (bedstraw; Rate 250 g/ha, scale of 0 to 10, 0 is no effect, 10 is complete control): 0
Plant response rating, Bedstraw (bedstraw; Rate 500 g/ha, scale of 0 to 10 where 0 is no effect and 10 is complete control): 0
Plant response rating, S. Flatsedge (0 to 10 scale, 0 is no effect, 10 is complete control) (smallflower flatsedge; [1]): 0
S. Flatsedge plant response rating (0 to 10 scale, 0 is no effect, 10 is complete control) (smallflower flatsedge; [2]): 0
S. Flatsedge plant response rating (smallflower flatsedge; [3]): 0
S. Flatsedge plant response rating (smallflower flatsedge; [4]): 0
Plant response rating, Velvetleaf (velvetleaf; [5]): 0
Plant response rating, Velvetleaf (velvetleaf; [6]): 0
Velvetleaf plant response rating (velvetleaf; [7]): 0
Plant response rating, Velvetleaf (velvetleaf; [8]): 3
Velvetleaf plant response rating (velvetleaf; [9]): 0
Velvetleaf plant response rating (velvetleaf; [10]): 0
Plant response rating, Velvetleaf (velvetleaf; [11]): 0
Plant response rating, Wheat (wheat; [5]): 0
Plant response rating, Wheat (wheat; [6]): 0
Wheat plant response rating (wheat; [7]): 0
Plant response rating, Wheat (wheat; [8]): 0
Wheat plant response rating (wheat; [9]): 0
Wheat plant response rating (wheat; [10]): 0
Plant response rating, Wheat (wheat; [11]): 0
Plant response rating, B. signalgrass (surinam grass; [5]): 0
Plant response rating, B. signalgrass (surinam grass; [6]): 0
B. signalgrass plant response rating (surinam grass; [7]): 0
Plant response rating, B. signalgrass (surinam grass; [8]): 0
B. signalgrass plant response rating (surinam grass; [9]): 0
B. signalgrass plant response rating (surinam grass; [10]): 0
B. signalgrass plant response rating (0 to 10 scale, 0 is no effect, 10 is complete control) (surinam grass; Preemergence, Rate 250 g/ha): 0
B. signalgrass plant response rating (surinam grass; [11]): 0
Plant response rating, Soybean (soybean; [5]): 1
Plant response rating, Soybean (soybean; [6]): 2
Soybean plant response rating (soybean; [7]): 2
Soybean plant response rating (soybean; [9]): 0
Soybean plant response rating (soybean; [10]): 0
Plant response rating, Soybean (soybean; [11]): 0
Plant response rating, Cocklebur (cocklebur; [5]): 0
Plant response rating, Cocklebur (cocklebur; [6]): 0
Cocklebur plant response rating (cocklebur; [7]): 0
Plant response rating, Cocklebur (cocklebur; [8]): 0
Cocklebur plant response rating (cocklebur; [9]): 0
Cocklebur plant response rating (cocklebur; [10]): 0
Cocklebur plant response rating (0 to 10 scale) (cocklebur; Preemergence, Rate 250 g/ha): 0
Plant response rating, Cocklebur (cocklebur; [11]): 0
Plant response rating, Blackgrass (blackgrass; [5]): 0
Plant response rating, Blackgrass (blackgrass; [6]): 0
Blackgrass plant response rating (blackgrass; [7]): 0
Plant response rating, Blackgrass (blackgrass; [8]): 1
Blackgrass plant response rating (blackgrass; [9]): 0
Blackgrass plant response rating (blackgrass; [10]): 0
Blackgrass plant response rating (0 to 10 scale) (blackgrass; Preemergence, Rate 250 g/ha): 0
Blackgrass plant response rating (blackgrass; [11]): 3
Plant response rating, Sugarbeets (sugar beet; [5]): 0
Plant response rating, Sugarbeets (sugar beet; [6]): 0
Sugarbeets plant response rating (sugar beet; [7]): 0
Plant response rating, Sugarbeets (sugar beet; [8]): 0
Sugarbeets plant response rating (sugar beet; [9]): 0
Sugarbeets plant response rating (sugar beet; [10]): 0
Plant response rating, Sugarbeets (sugar beet; [11]): 0
Plant response rating, Barnyardgrass (0 to 10 scale, 0 is no effect, 10 is complete control) (bamyardgrass; [1]): 0
Barnyardgrass plant response rating (0 to 10 scale, 0 is no effect, 10 is complete control) (bamyardgrass; [2]): 0
Barnyardgrass plant response rating (bamyardgrass; [3]): 0
Barnyardgrass plant response rating (bamyardgrass; [4]): 0
Plant response rating, Rape (rape; [6]): 2
Rape plant response rating (rape; [7]): 3
Plant response rating, Rape (rape; [8]): 4
Rape plant response rating (rape; [9]): 0
Rape plant response rating (rape; [10]): 0
Plant response rating, Rape (rape; [11]): 0

— US6737383B1, “Herbicidal oxadiazolidines” (priority 1999, dated 2004)
